# Source: US20230312587A1, “PTERIDINONE COMPOUNDS AND USES THEREOF” (Vertex Pharmaceutical Incorporated, priority 2018, published 2023)
# Test system: β-catenin-TCF-mediated reporter transcription activity in Colo 205 cells
# Experiment: Colo 205 reporter assay (TCF/LEF luciferase)
# Format: cell-based
# Details: Colo 205 TCF/LEF luciferase reporter, five hours after addition of compound; read-out: TCF reporter Colo205 IC50
# How it was run: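 Luciferase signal from a TCF/LEF-driven reporter, stably integrated in Colo 205 colon cancer cells, was measured 5 h after compound addition.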
row,Compound,IC50
1,"Cc1nc(NCc2cnn(Cc3ccc(C(F)(F)F)nc3)c2)nc2c1NC(=O)C1(CCOC1)N2C (stereo not shown) [Compound 662, 4′,8′-dimethyl-2′-(((1-((6-(trifluoromethyl)pyridin-3-yl)methyl)-1H-pyrazol-4-yl)methyl)amino)-4,5,5′,8′-tetrahydro-2H,6′H-spiro[furan-3,7′-pteridin]-6′-one]",300 to 1000 nM
2,"Cc1nc(NCc2cnn(Cc3ccc(C(F)(F)F)nc3)c2)nc2c1NC(=O)C1(CCOC1)N2C (stereo not shown) [Compound 663, 4′,8′-dimethyl-2′-(((1-((6-(trifluoromethyl)pyridin-3-yl)methyl)-1H-pyrazol-4-yl)methyl)amino)-4,5,5′,8′-tetrahydro-2H,6′H-spiro[furan-3,7′-pteridin]-6′-one]",1000 to 5000 nM

# Same assay, conditions: Homo sapiens, COLO 205, 5 h, Colo 205 TCF/LEF luciferase reporter, five hours after addition of compound; read-out: TCF reporter Colo205 IC50
row,Compound,IC50
1,"Cc1nc(NC2CN(Cc3ccc(C(F)(F)F)nc3)C2)nc2c1NC(=O)[C@H](C(C)C)N2C [Compound 649, (S)-7-isopropyl-4,8-dimethyl-2-((1-((6-(trifluoromethyl)pyridin-3-yl)methyl)azetidin-3-yl)amino)-7,8-dihydropteridin-6(5H)-one]",< 300 nM
2,"Cc1nc(NCc2cnn(Cc3c(F)cc(F)cc3F)c2)nc2c1N(C)C(=O)[C@H](C)N2C [Compound 18, (7S)-4,5,7,8-tetramethyl-2-(((1-(2,4,6-trifluorobenzyl)-1H-pyrazol-4-yl)methyl)amino)-7,8-dihydropteridin-6(5H)-one]",< 300 nM
3,"Cc1nc(N[C@H]2C[C@H](NC(=O)Nc3ccc(C(F)(F)F)nc3)C2)nc2c1NC(=O)[C@H](C)N2C [Compound 471, 1-(6-(trifluoromethyl)pyridin-3-yl)-3-(trans-3-(((S)-4,7,8-trimethyl-6-oxo-5,6,7,8-tetrahydropteridin-2-yl)amino)cyclobutyl)urea]",≥ 5000 nM
4,"Cc1nc(N[C@H]2C[C@H](Oc3ccc(OC(F)F)nc3)C2)nc2c1N(C)C(=O)[C@H](C)N2C [Compound 362, (7S)-2-((trans-3-((6-(difluoromethoxy)pyridin-3-yl)oxy)cyclobutyl)amino)-4,5,7,8-tetramethyl-7,8-dihydropteridin-6(5H)-one]",300 to 1000 nM
5,"COc1cc(F)ccc1Cn1cc(CNc2nc(C)c3c(n2)N(C)[C@@H](C)C(=O)N3C)cn1 [Compound 84, (7S)-2-(((1-(4-fluoro-2-methoxybenzyl)-1H-pyrazol-4-yl)methyl)amino)-4,5,7,8-tetramethyl-7,8-dihydropteridin-6(5H)-one]",< 300 nM
6,"Cc1nc(NCc2cnn(Cc3ccnc(Cl)c3)c2)nc2c1NC(=O)[C@H](C(C)C)N2C [Compound 446, (7S)-2-(((1-((2-chloropyridin-4-yl)methyl)-1H-pyrazol-4-yl)methyl)amino)-7-isopropyl-4,8-dimethyl-7,8-dihydropteridin-6(5H)-one]",< 300 nM
7,"Cc1nc(NCc2cnn(Cc3ccnc(N(C)C)c3)c2)nc2c1NC(=O)[C@H](C)N2C [Compound 12, (7S)-2-(((1-((2-(dimethylamino)pyridin-4-yl)methyl)-1H-pyrazol-4-yl)methyl)amino)-4,7,8-trimethyl-7,8-dihydropteridin-6(5H)-one]",300 to 1000 nM
8,"CC[C@H]1C(=O)Nc2c(C)nc(N[C@H]3C[C@H](N(C)c4cnc(C(F)(F)F)cn4)C3)nc2N1C [Compound 682, (S)-7-ethyl-4,8-dimethyl-2-((trans-3-(methyl(5-(trifluoromethyl)pyrazin-2-yl)amino)cyclobutyl)amino)-7,8-dihydropteridin-6(5H)-one]",< 300 nM
9,"Cc1nc(NC2CN(S(=O)(=O)c3ccc(F)cc3)C2)nc2c1NC(=O)[C@H](C(C)C)N2C [Compound 592, (7S)-2-((1-((4-fluorophenyl)sulfonyl)azetidin-3-yl)amino)-7-isopropyl-4,8-dimethyl-7,8-dihydropteridin-6(5H)-one]",≥ 5000 nM
10,"Cc1nc(N[C@H]2C[C@@H](Sc3ccc(OC(F)(F)F)cc3)C2)nc2c1NC(=O)[C@H](C)N2C [Compound 336, (7S)-4,7,8-trimethyl-2-((cis-3-((4-(trifluoromethoxy)phenyl)thio)cyclobutyl)amino)-7,8-dihydropteridin-6(5H)-one]",300 to 1000 nM
11,"Cc1nc(NCc2cn(Cc3cc(F)c(F)c(F)c3)nn2)nc2c1NC(=O)[C@H](C(C)C)N2C [Compound 452, (S)-7-isopropyl-4,8-dimethyl-2-(((1-(3,4,5-trifluorobenzyl)-1H-1,2,3-triazol-4-yl)methyl)amino)-7,8-dihydropteridin-6(5H)-one]",< 300 nM
12,"Cc1nc(NC2CN(C(=O)c3cn(C)nc3C(F)(F)F)C2)nc2c1NC(=O)[C@H](C(C)C)N2C [Compound 609, (S)-7-isopropyl-4,8-dimethyl-2-((1-(1-methyl-3-(trifluoromethyl)-1H-pyrazole-4-carbonyl)azetidin-3-yl)amino)-7,8-dihydropteridin-6(5H)-one]",1000 to 5000 nM
13,"C[C@H]1C(=O)Nc2cnc(NCc3cnn(CCCc4ccc(F)cc4)c3)nc2N1C [Compound 110, (7S)-2-(((1-(3-(4-fluorophenyl)propyl)-1H-pyrazol-4-yl)methyl)amino)-7,8-dimethyl-7,8-dihydropteridin-6(5H)-one]",300 to 1000 nM
14,"Cc1nc(N[C@H]2C[C@H](NC(=O)Nc3cc(F)c(F)cc3F)C2)nc2c1NC(=O)[C@H](C)N2C [Compound 478, 1-(2,4,5-trifluorophenyl)-3-(trans-3-(((S)-4,7,8-trimethyl-6-oxo-5,6,7,8-tetrahydropteridin-2-yl)amino)cyclobutyl)urea]",1000 to 5000 nM
15,"Cc1nc(N[C@H]2C[C@H](Oc3cc(F)c(F)c(F)c3)C2)nc2c1NC(=O)[C@H](COC(C)(C)C)N2C [Compound 674, (S)-7-(tert-butoxymethyl)-4,8-dimethyl-2-((trans-3-(3,4,5-trifluorophenoxy)cyclobutyl)amino)-7,8-dihydropteridin-6(5H)-one]",< 300 nM
16,"Cc1nc(N[C@H]2C[C@H](OCc3ccc(F)c(F)c3)C2)nc2c1N(C)C(=O)[C@H](C)N2C [Compound 266, (7S)-2-((trans-3-((3,4-difluorobenzyl)oxy)-cyclobutyl)amino)-4,5,7,8-tetramethyl-7,8-dihydropteridin-6(5H)-one]",300 to 1000 nM
17,"CC(C)c1ccccc1Cn1cc(CNc2ncc3c(n2)N(C)[C@@H](C)C(=O)N3)cn1 [Compound 79, (7S)-2-(((1-(2-isopropylbenzyl)-1H-pyrazol-4-yl)methyl)amino)-7,8-dimethyl-7,8-dihydropteridin-6(5H)-one]",< 300 nM
18,"Cc1nc(NCc2cnn(CC(C)(C)c3ccc(F)cc3)c2)nc2c1NC(=O)[C@H](C)N2C [Compound 92, (7S)-2-(((1-(2-(4-fluorophenyl)-2-methylpropyl)-1H-pyrazol-4-yl)methyl)amino)-4,7,8-trimethyl-7,8-dihydropteridin-6(5H)-one]",< 300 nM
19,"CC[C@H]1C(=O)Nc2c(C)nc(NCc3cnn(Cc4cnc(F)c(OC)c4)c3)nc2N1C [Compound 394, (7S)-7-Ethyl-2-(((1-((6-fluoro-5-methoxypyridin-3-yl)methyl)-1H-pyrazol-4-yl)methyl)amino)-4,8-dimethyl-7,8-dihydropteridin-6(5H)-one]",< 300 nM
20,"Cc1nc(NCc2cnn(Cc3ncc(F)cn3)c2)nc2c1NC(=O)[C@H](C)N2C [Compound 162, (7S)-2-(((1-((5-fluoropyrimidin-2-yl)methyl)-1H-pyrazol-4-yl)methyl)amino)-4,7,8-trimethyl-7,8-dihydropteridin-6(5H)-one]",≥ 5000 nM
21,"Cc1nc(NCc2cnn(Cc3ccc(C(C)(C)C)nc3)c2)nc2c1NC(=O)[C@H](C(C)C)N2C [Compound 469, (S)-2-(((1-((6-(tert-butyl)pyridin-3-yl)methyl)-1H-pyrazol-4-yl)methyl)amino)-7-isopropyl-4,8-dimethyl-7,8-dihydropteridin-6(5H)-one]",< 300 nM
22,"Cc1nc(N[C@H]2C[C@@H](NS(=O)(=O)c3cc(F)c(F)c(F)c3)C2)nc2c1NC(=O)[C@H](C)N2C [Compound 481, 3,4,5-trifluoro-N-(cis-3-(((S)-4,7,8-trimethyl-6-oxo-5,6,7,8-tetrahydropteridin-2-yl)amino)cyclobutyl)benzenesulfonamide]",300 to 1000 nM
23,"Cc1nc(NCc2cnn(Cc3ccnc(N(C)C)c3)c2)nc2c1NC(=O)[C@H](C(C)C)N2C [Compound 448, (S)-2-(((1-((2-(dimethylamino)pyridin-4-yl)methyl)-1H-pyrazol-4-yl)methyl)amino)-7-isopropyl-4,8-dimethyl-7,8-dihydropteridin-6(5H)-one]",< 300 nM
24,"Cc1cc(Cn2cc(CNc3nc(C)c4c(n3)N(C)[C@@H](C)C(=O)N4)cn2)ccn1 [Compound 178, (7S)-4,7,8-trimethyl-2-(((1-((2-methylpyridin-4-yl)methyl)-1H-pyrazol-4-yl)methyl)amino)-7,8-dihydropteridin-6(5H)-one]",1000 to 5000 nM
25,"COc1ccc(O[C@H]2C[C@H](Nc3nc(C)c4c(n3)N(C)[C@@H](C)C(=O)N4C)C2)c(F)c1 [Compound 355, (7S)-2-((trans-3-(2-fluoro-4-methoxyphenoxy)cyclobutyl)amino)-4,5,7,8-tetramethyl-7,8-dihydropteridin-6(5H)-one]",1000 to 5000 nM
26,"Cc1nn(Cc2ccc(F)cc2)cc1CNc1nc(C)c2c(n1)N(C)[C@@H](C)C(=O)N2 [Compound 73, (7S)-2-(((1-(4-fluorobenzyl)-3-methyl-1H-pyrazol-4-yl)methyl)amino)-4,7,8-trimethyl-7,8-dihydropteridin-6(5H)-one]",< 300 nM
27,"Cc1cc(OC(C)(C)C)ncc1Cn1cc(CNc2nc(C)c3c(n2)N(C)[C@@H](C)C(=O)N3)cn1 [Compound 167, (7S)-2-(((1-((6-(tert-butoxy)-4-methylpyridin-3-yl)methyl)-1H-pyrazol-4-yl)methyl)amino)-4,7,8-trimethyl-7,8-dihydropteridin-6(5H)-one]",< 300 nM

# Same assay, conditions: Homo sapiens, COLO 205, 5 h, R-isomer at C2 (corresponding to C2 S-isomer); Colo 205 TCF/LEF luciferase reporter, 5 h; read-out: TCF reporter Colo205 IC50
row,Compound,IC50
1,CCC[C@@H]1C(=O)N(C)c2cnc(NCc3cnn(Cc4ccc(F)cc4)c3)nc2N1C [Compound I-984],300 to 1000 nM
2,CCN1C(=O)[C@@H](C)N(CC)c2nc(NCc3cnn(Cc4ccc(F)cc4)c3)ncc21 [Compound I-985],< 300 nM
